Experimental data as given in ChEMBL document CHEMBL4041547, “Novel Potentiators for Vancomycin in the Treatment of Biofilm-Related MRSA Infections via a Mix and Match Approach” (ACS Med Chem Lett, 2017).
The source made the active and inactive calls. No cut-off for these calls is given here.

Assays:
Staphylococcus aureus [1] = test: Growth inhibition of methicillin-resistant Staphylococcus aureus Mu50
[2] = biological target: T1, Signal transduction protein TRAP (Staphylococcus aureus (strain Mu50 / ATCC 700699)) (UniProt Q7A2Q4); test: (§1) Inhibition of methicillin-resistant Staphylococcus aureus Mu50 TRAP assessed as potentiation of vancomycin-induced antibiofilm activity by measuring vancomycin-mediated reduction in colony forming units at 25 uM cotreated with vancomycin for 24 hrs (reference value: 30 +/- 14%); details: Staphylococcus aureus subsp. aureus Mu50
T1 sequence (whole entry): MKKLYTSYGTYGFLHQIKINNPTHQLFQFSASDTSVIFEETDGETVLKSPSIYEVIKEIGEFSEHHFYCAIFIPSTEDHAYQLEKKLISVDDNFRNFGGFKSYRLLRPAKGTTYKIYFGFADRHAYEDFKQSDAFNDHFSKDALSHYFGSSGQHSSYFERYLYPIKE

[3] = biological target: T1, Signal transduction protein TRAP (Staphylococcus aureus (strain Mu50 / ATCC 700699)); test: as §1, with “pretreated for 4 hrs prior to” for “cotreated with”, “addition measured after 20” for “for 24”; details: Staphylococcus aureus subsp. aureus Mu50
Staphylococcus aureus [4] = test: Antibiofilm activity against methicillin-resistant Staphylococcus aureus Mu50 at 100 uM; assay type: functional
[5] = biological target: T1, Signal transduction protein TRAP (Staphylococcus aureus (strain Mu50 / ATCC 700699)); test: Inhibition of methicillin-resistant Staphylococcus aureus Mu50 TRAP assessed as reduction in vancomycin MIC at 100 uM; details: Staphylococcus aureus subsp. aureus Mu50
Plasma = test: Metabolic stability in human plasma by UPLC-MS/MS analysis; assay type: ADME, cell-free
[6] = Drug metabolism assessed as UGT-mediated compound degradation in human liver microsomes at 5 uM using UDPGA as cofactor by UPLC-MS/MS analysis; assay type: ADME
Staphylococcus aureus [7] = test: Inhibition of methicillin-resistant Staphylococcus aureus JE2 TRAP assessed as reduction in vancomycin MIC at 100 uM
[8] = Drug metabolism assessed as CYP450-mediated compound degradation in human liver microsomes at 5 uM using NADPH as cofactor by UPLC-MS/MS analysis; assay type: ADME
Staphylococcus aureus [9] = test: Antibiofilm activity against methicillin-resistant Staphylococcus aureus JE2 at 100 uM; assay type: functional

Row | Structure (SMILES) | MIC (Staphylococcus aureus [1]) [µM] | inhibition [2] [%] | inhibition [3] [%] | further results
1 | O=C(NC[C@]1(O)CO[C@H](CNC(=O)c2ccccc2Cl)[C@H]1O)c1cncnc1 | > 500 | 35 | 36 | –
2 | O=C(NC[C@]1(O)CO[C@H](CN2C(=O)c3ccccc3C2=O)[C@H]1O)c1ccccc1Cl | – | – | – | Activity (Staphylococcus aureus [4]): inactive; inhibition [5]: inactive; Stability (Plasma): Stable; Stability [6]: Stable; inhibition (Staphylococcus aureus [7]): inactive; Stability [8]: Unstable; Activity (Staphylococcus aureus [9]): inactive
3 | O=C(NC[C@]1(O)CO[C@H](CN2C(=O)c3ccccc3C2=O)[C@H]1O)c1ccnnc1 | – | – | – | Activity (Staphylococcus aureus [4]): inactive; inhibition [5]: inactive; inhibition (Staphylococcus aureus [7]): inactive; Activity (Staphylococcus aureus [9]): inactive
4 | O=C(NC[C@H]1OC[C@@](O)(CNCc2ccccc2)[C@@H]1O)c1ccccc1Cl | > 500 | 89 | 94 | –
5 | O=C(NC[C@H]1OC[C@@](O)(CNS(=O)(=O)c2ccccc2)[C@@H]1O)c1ccccc1Cl | > 500 | 44 | 65 | –
6 | O=C(NC[C@]1(O)CO[C@H](CNC(=O)c2ccccc2Cl)[C@H]1O)Nc1ccccc1 | > 500 | 58 | 67 | –
7 | O=C(NC[C@]1(O)CO[C@H](CNC(=O)c2ccccc2Cl)[C@H]1O)c1ccc(Cl)cc1 | > 500 | 43 | 39 | –
8 | O=C(NC[C@H]1OC[C@H](O)[C@@H]1O)c1ccccc1Cl | > 500 | 81 | 80 | –
9 | O=C(OC[C@H]1OC(O)[C@@](O)(COC(=O)c2cc(O)c(O)c(O)c2)[C@@H]1O)c1cc(O)c(O)c(O)c1 (some centres undefined) [HAMAMELITANNIN] | > 500 | 31 | 35 | –
10 | O=C(NC[C@]1(O)CO[C@H](CNC(=O)c2ccccc2Cl)[C@H]1O)c1ccoc1 | > 500 | 50 | 58 | –
11 | O=C(NC[C@]1(O)CO[C@H](CNC(=O)c2ccccc2Cl)[C@H]1O)c1ccccc1F | > 500 | 56 | 38 | –
12 | O=C(NC[C@]1(O)CO[C@H](CNC(=O)c2ccccc2Cl)[C@H]1O)c1ccccc1 | > 500 | 80 | 85 | –
13 | O=C(NC[C@H]1OC[C@@](O)(CN2Cc3ccccc3C2=O)[C@@H]1O)c1ccccc1Cl | > 500 | 73 | 92 | –
14 | O=C(CCc1ccccc1)NC[C@]1(O)CO[C@H](CNC(=O)c2ccccc2Cl)[C@H]1O | > 500 | 18 | 35 | –
15 | [N-]=[N+]=NC[C@]1(O)CO[C@H](CNC(=O)c2ccccc2Cl)[C@H]1O | > 500 | 88 | 87 | –
16 | O=C(NC[C@H]1OC[C@@](O)(CNC(=O)C2CCCCC2)[C@@H]1O)c1ccccc1Cl | > 500 | 55 | 85 | –
17 | CC(=O)NC[C@]1(O)CO[C@H](CNC(=O)c2ccccc2Cl)[C@H]1O | > 500 | 82 | 70 | –
18 | CN[C@H](CC(C)C)C(=O)N[C@H]1C(=O)N[C@@H](CC(N)=O)C(=O)N[C@H]2C(=O)N[C@H]3C(=O)N[C@H](C(=O)N[C@H](C(=O)O)c4cc(O)cc(O)c4-c4cc3ccc4O)[C@H](O)c3ccc(c(Cl)c3)Oc3cc2cc(c3O[C@@H]2O[C@H](CO)[C@@H](O)[C@H](O)[C@H]2O[C@H]2C[C@](C)(N)[C@H](O)[C@H](C)O2)Oc2ccc(cc2Cl)[C@H]1O | – | 30 | 30 | –
19 | Cc1ccc(C(=O)NC[C@]2(O)CO[C@H](CNC(=O)c3ccccc3Cl)[C@H]2O)cc1 | > 500 | 58 | 48 | –
20 | COc1ccc(C(=O)NC[C@]2(O)CO[C@H](CNC(=O)c3ccccc3Cl)[C@H]2O)cc1 | > 500 | 43 | 34 | –
